For series [1], the target named is T1, cloned rat mGluR1 receptor (Rattus norvegicus, UniProt P23385).
T1 construct: expressed in transfected cells; host or cells: CHO cells
The series is described as follows: Signal transduction at the cloned rat mGluR1 receptor in CHO cells (glutamate-induced intracellular Ca2+ rise, FLIPR). The class given is cell-based.
Procedure: Pharmacological Example Signal Transduction at the Cloned Rat mGluR1 Receptor in CHO Cells
CHO cells expressing the mGluR1 receptor were plated in precoated black 96-well plates. […] The cells were loaded with Fluo-3 AM, plates were incubated for 1 hour at room temperature in the dark, cells were washed and the present compounds were added onto the cells for 20 minutes. […] Relative fluorescence units were recorded and average data graphs of quadruple wells were obtained.

Series [2] deals with rats with a Bennett ligation. The series is described as follows: Cold allodynia test in rats with a Bennett ligation (cold plate testing). To be noted: male SD rats, IP, dose of 2.5 mg/kg bodyweight, retested after 60 minutes, cold plate 0.0 °C. The class given is in vivo, rat. How it is done:
Cold Allodynia Test in Rats with a Bennett Ligation
Male SD rats, weighing 240-280 g at the time of surgery were used.
For surgery, the animals were anaesthetised with Thalamonal (1 ml; subcutane) and sodium pentobarbital (40 mg/kg; intraperitoneal (IP)). The common sciatic nerve of the left hindpaw was exposed at the level of the middle of the thigh by blunt dissection through the biceps femoris. Proximal to the sciatic's trifurcation, about 7 mm of nerve was freed and four loose ligatures with 4.0 chromic gut were placed around the sciatic nerve. Great care was taken to tie the ligatures such that the diameter of the nerve was barely constricted. After surgery, the animals received 1.25 mg/kg naloxone IP.
Cold plate testing was performed on a metal plate of 30×30 cm with transparent acrylic walls around it. The cold plate was cooled to 0.0 (±0.5)° C. using a Julabo F25 cooler. For testing, the animal was placed on the cold plate and the duration of lifting of both the left and the right hindpaw was measured during 5 minutes. The difference in lifting time between the ligated and non-ligated paw was calculated.
At least one week after the operation, animals were placed on the cold plate test and a pre-drug measurement was taken. […] The results obtained during the post drug test were expressed as a percentage of those of the predrug test. […]

The structures appear in SMILES notation.

T1 sequence (P23385 19-1199): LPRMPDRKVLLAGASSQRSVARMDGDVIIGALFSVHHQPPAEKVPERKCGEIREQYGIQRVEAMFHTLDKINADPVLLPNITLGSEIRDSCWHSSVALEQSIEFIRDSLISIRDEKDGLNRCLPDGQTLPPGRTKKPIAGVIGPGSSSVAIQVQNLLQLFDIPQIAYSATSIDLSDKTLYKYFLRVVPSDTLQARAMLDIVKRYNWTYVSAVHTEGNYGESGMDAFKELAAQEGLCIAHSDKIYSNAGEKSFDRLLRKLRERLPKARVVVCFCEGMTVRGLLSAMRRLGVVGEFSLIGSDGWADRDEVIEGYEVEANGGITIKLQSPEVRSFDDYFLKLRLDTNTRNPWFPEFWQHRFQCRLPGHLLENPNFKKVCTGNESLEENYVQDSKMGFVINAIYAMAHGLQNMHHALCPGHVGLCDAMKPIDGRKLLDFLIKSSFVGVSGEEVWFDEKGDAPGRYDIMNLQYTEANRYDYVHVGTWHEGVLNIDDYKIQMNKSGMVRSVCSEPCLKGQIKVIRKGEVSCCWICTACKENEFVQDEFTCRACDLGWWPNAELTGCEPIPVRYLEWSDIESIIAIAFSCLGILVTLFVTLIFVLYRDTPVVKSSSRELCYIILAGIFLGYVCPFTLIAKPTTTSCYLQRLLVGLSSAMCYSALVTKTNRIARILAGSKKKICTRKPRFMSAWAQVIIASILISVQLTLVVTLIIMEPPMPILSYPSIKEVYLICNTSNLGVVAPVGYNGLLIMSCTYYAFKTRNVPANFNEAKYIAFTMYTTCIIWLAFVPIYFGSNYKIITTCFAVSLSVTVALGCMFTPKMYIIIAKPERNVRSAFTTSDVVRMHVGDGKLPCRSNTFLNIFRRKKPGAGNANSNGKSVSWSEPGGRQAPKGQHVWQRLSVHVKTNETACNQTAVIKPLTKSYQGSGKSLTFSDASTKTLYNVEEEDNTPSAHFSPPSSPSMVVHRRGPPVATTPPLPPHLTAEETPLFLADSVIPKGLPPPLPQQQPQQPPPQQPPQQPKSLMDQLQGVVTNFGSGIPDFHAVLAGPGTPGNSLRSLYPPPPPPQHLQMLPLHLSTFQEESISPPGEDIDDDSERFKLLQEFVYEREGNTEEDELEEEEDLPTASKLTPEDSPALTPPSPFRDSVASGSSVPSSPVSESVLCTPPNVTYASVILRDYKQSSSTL

By melting point is commonly meant the temperature, or range, at which the solid turns liquid. Take `CCc1cc2cc(C(=O)C3CCC(OC)CC3)ccc2nc1C#CCO` (centres unmarked) [Compound 18]: the melting point is 113 °C.
In general, IC50 refers to the concentration that inhibits the measured activity by half. As for `CO[C@H]1CC[C@@H](C(=O)c2ccc3nc4c(cc3c2)CCCCC4)CC1` [Compound 426], half-maximal inhibition in series [1] (IC50) required 77.6 nM.
Still for that read-out and setting: the value for `CCc1cc2cc(C(=O)Cc3ccsc3)ccc2nc1C` [Compound 299] was 23.4 nM.
Still for that read-out and setting: the result for `O=C(Cc1ccsc1)c1ccc2nc3c(cc2c1)CCCS3` [Compound 464] reads 26.9 nM.
As for `CCc1cc2cc(C(=O)C3CCC(OC)CC3)ccc2nc1C` (centres unmarked) [Compound 27], the “all or none criterion on difference in lifting time between ligated and non-ligated paw, post-drug as percentage of pre-drug” value in series [2] is given as “antagonism”.
In turn, `CCc1cc2cc(C(=O)C3CCC(OC)CC3)ccc2nc1I` (centres unmarked) [Compound 21] registered a melting point of 110 °C.
As for `CCc1cc2cc(C(=O)[C@H]3CC[C@@H](OC)CC3)ccc2nc1COC(C)=O` [Compound 348], 89.1 nM corresponded to half-maximal inhibition in series [1] (IC50).
Regarding `CCc1cc2cc(C(=O)C3CCC(OC)CC3)ccc2nc1C#N` (centres unmarked) [Compound 22], the melting point came to 138 °C.
